Assays:
OCRL = test system: OCRL; parameters: method as in PMID 22033675; details: cited from earlier work
tSHIP1 = target: T1, tSHIP1 (Homo sapiens, UniProt Q92835); assay: Fluorescence Polarization (FP) assay for the detection of PI(3,4)P2, SHIP1; type: biochemical
T1 sequence (Q92835 399-715 limits assumed): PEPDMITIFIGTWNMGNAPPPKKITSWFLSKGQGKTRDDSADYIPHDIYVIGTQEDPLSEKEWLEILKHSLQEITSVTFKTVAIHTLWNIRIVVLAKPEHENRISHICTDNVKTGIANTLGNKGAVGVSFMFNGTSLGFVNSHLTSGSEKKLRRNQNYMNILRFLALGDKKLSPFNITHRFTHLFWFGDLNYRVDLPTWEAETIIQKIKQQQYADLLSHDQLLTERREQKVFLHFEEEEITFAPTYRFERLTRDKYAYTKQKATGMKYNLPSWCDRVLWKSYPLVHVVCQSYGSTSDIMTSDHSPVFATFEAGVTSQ
Description: (§1) These compounds were then tested for their activity against the two SHIP paralogs, SHIP1 and SHIP2 in the colorimetric malachite green phosphatase assay. The malachite green assay detects the amount of free phosphate produced from enzymatic reactions with SHIP and an inositol phospholipid substrate.
4.8. Fluorescence Polarization (FP) Assays for the Detection of PI(3,4)P2
The FP Assay for the detection of PI(3,4)P2 (Echelon Biosciences) was performed using tSHIP1 [48] with serial dilutions of the tryptamines in DMSO according to the manufacturer’s recommendation as previously described. […] 40 µL of 4 µM PIP3 (PI(3,4,5)P3-diC8) in Rx buffer is added to each reaction and incubated at 37 °C for 20 min, followed by heat inactivation for 3 min at 95 °C. Reactions were spun down briefly and 10 µL of each reaction was added in 6 replicate wells to a black 384-well plate provided with the FP kit. 10 µL of 1X reconstituted Detector (a phosphoinositide binding protein) in PBS is then added to each well, followed by 5 µL of 1X freshly diluted Probe (in PBS, a fluorophore-labeled phosphoinositide) protected from light. Assay plates are gently tapped to mix, the plate is sealed and spun down briefly and the reaction is allowed to equilibrate for 60 min at room temperature protected from light.

mice = assay: Side effect observed in mice; details: in vivo
multiple myeloma cells = test system: multiple myeloma cells; parameters: method as in PMID 22033675; details: followed by caspase cascade activation leading to extensive apoptosis; cited from earlier work
SHIP2 = target: T2, SHIP2 (Homo sapiens, UniProt O15357); assay: Malachite green phosphatase release assay, SHIP2; type: biochemical
T2 construct: purchased Echelon Biosciences
T2 sequence (O15357 1-1258): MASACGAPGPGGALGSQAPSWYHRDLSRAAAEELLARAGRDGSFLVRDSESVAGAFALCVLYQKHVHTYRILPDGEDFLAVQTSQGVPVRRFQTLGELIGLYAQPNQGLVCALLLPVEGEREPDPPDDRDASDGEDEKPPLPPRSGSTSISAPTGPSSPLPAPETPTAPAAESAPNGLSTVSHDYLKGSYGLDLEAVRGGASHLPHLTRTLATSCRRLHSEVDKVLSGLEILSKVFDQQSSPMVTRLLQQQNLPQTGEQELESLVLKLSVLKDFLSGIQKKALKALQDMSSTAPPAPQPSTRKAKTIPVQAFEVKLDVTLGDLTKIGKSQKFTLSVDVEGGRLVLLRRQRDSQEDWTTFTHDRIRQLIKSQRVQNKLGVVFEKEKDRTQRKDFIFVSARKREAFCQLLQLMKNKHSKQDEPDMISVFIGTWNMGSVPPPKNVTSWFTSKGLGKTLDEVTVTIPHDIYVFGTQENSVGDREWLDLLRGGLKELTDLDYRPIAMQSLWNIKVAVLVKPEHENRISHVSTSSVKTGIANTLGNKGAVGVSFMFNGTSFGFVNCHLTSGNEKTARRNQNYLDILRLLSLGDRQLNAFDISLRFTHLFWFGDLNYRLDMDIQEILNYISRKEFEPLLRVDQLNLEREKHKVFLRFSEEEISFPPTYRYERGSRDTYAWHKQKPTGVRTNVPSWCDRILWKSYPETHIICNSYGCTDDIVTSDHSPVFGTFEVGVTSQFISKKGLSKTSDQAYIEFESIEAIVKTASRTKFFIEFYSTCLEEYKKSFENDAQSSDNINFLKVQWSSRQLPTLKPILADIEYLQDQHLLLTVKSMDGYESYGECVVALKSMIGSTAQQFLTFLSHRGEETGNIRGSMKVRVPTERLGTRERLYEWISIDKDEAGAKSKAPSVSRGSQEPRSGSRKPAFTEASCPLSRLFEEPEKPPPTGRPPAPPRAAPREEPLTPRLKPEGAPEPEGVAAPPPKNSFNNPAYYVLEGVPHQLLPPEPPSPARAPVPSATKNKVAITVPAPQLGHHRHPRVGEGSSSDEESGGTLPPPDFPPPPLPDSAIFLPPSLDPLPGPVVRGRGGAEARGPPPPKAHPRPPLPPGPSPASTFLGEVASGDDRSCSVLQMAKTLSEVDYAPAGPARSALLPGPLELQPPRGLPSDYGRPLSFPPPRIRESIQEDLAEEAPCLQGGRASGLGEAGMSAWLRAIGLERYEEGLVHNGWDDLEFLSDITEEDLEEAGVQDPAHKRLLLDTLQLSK
Description: as §1
(§2) 4.7. Malachite Green Phosphatase Release Assays
(§3) Malachite green assays to monitor phosphatase release (Echelon Biosciences) were performed with recombinant human truncated SHIP1 (tSHIP1) and SHIP2 (Echelon Biosciences). Serial dilutions of the compounds dissolved in DMSO were added to the recombinant enzymes diluted in reaction buffer Rx (50 mM Hepes pH 7.4, 150 mM NaCl, 1 mM MgCl2, 0.25 mM EDTA) in triplicate reaction wells in 96-well plates. After incubation for 2 min at room temperature, 2.5 µL of 1 mM phosphatidylinositol 3,4,5-trisphosphate diC8 (PI(3,4,5)P3-diC8, Echelon Biosciences) was added to each reaction to a final concentration of 100 µM in a final volume of 25 µL /well. Following a 20 min incubation at 37 °C, 100 µL of Malachite Green solution (Echelon Biosciences) was added to each well and the plates were incubated at room temperature in the dark for 15 min. Plates were then read at 620 nm on a plate reader (Synergy 2, BioTek, Santa Clara, CA, USA). In addition, 3α-Aminocholestane, a known SHIP1 inhibitor, and AS1949490, a known SHIP2 inhibitor, were used as positive controls.

[1] = test system: several cell lines, especially breast cancer cells; parameters: method as in PMID 22033675, PMID 27716613; details: cited from earlier work
[2] = test system: recombinant human truncated SHIP1 (tSHIP1); assay: Malachite green phosphatase release assay, SHIP1; type: biochemical; details: for Malachite (250 µM) % Inhib. SHIP1: 250 µM compound; for Malachite (500 µM) % Inhib. SHIP1: 500 µM compound; for activity against SHIP1 (in words): summary of Table 1
Description: These compounds were then tested for their activity against the two SHIP paralogs, SHIP1 and SHIP2 in the colorimetric malachite green phosphatase assay. The malachite green assay detects the amount of free phosphate produced from enzymatic reactions with SHIP and an inositol phospholipid substrate. The Malachite assay is useful for ruling out compounds that are fluorescent or have aggregation issues and is inexpensive, so it was utilized as the primary screen even though it is not as sensitive as other assays.
as §2, §3

[3] = test system: leukemia cell lines (NB4, HSB2, K562 and 697-Pre-B), multiple myeloma cell line OPM-2, breast cancer cell lines MBA-MD-231 and MCF-7; assay: MTT cell viability assay on cancer cell lines; type: cell-based; details: Figure 3
Text: . The assay monitors the ability of NADPH-dependent cellular oxidoreductases to reduce the dye MTT (3-(4,5-dimethylthiazol-2-yl)-2,5-diphenyltetrazolium bromide), which when reduced produces a purple color that can be easily quantified. This assay is often used to determine cell viability. […] All of these cell lines express SHIP1 due to their hematopoietic origin, as SHIP1 is selectively expressed in blood and bone marrow cells. Cytotoxicity was also found on the breast cancer cell lines MBA-MD-231 and MCF-7, which is likely due to the inhibition of SHIP2. […]. 4.9. MTT Cell Viability Assay
Cells were treated in triplicate or more with increasing concentrations of the compound. Cell viability was determined with a Cell Counting Kit (Dojindo Molecular Technologies, Rockville, MD, USA) per the manufacturer’s instructions. The […] (OD) of compound-treated cells was divided by the OD of their vehicle control, and the viability was expressed as a percentage of untreated cells. Results are expressed as mean ± standard error of the mean (SEM) of three individual experiments. […]

[4] = test system: human blood cell cancers that express SHIP1; parameters: method as in PMID 20200281, PMID 22033675; details: cited from earlier work
multiple myeloma = test system: multiple myeloma; parameters: method as in PMID 22033675; details: xenogeneic multiple myeloma model in mice; cited from earlier work

Row | SMILES | effect on OCRL (OCRL) | IC50 (tSHIP1) | psychotropic effect in mice (mice) | cell cycle effect in multiple myeloma cells (multiple myeloma cells) | inhibition at 250 µM (SHIP2; 250 µM compound, read-out: Malachite (250 µM) % Inhib. SHIP2) | inhibition at 500 µM (SHIP2; 500 µM compound, read-out: Malachite (500 µM) % Inhib. SHIP2) | activity against SHIP2 (in words) (SHIP2; summary of Table 1) | antitumor effects on cell lines [1] | Malachite (250 µM) % Inhib. SHIP1 [2] | Malachite (500 µM) % Inhib. SHIP1 [2] | activity against SHIP1 (in words) [2] | cytotoxicity on cancer cell lines (in words) [3] | Akt activation and apoptosis [4] | protection from multiple myeloma growth (multiple myeloma)
1 | CSc1ccc2c(c1)c(CCN)c(C)n2Cc1ccccc1Cl.Cl [Compound 1, 2-(1-(2-Chlorobenzyl)-2-methyl-5-(methylthio)-1H-indol-3-yl)ethanaminium chloride] | no effect | 5 µM | induced a psychotropic effect | G2/M cell cycle arrest | 7% | 59% | significant activity | significant antitumor effects | 7% | 51% | significant activity | – | – | –
2 | CSc1ccc2c(c1)c(CCN)c(C)n2Cc1ccc(Cl)cc1Cl.Cl [Compound 7d, 2-(1-(2,4-Dichlorobenzyl)-2-methyl-5-(methylthio)-1H-indol-3-yl)ethanaminium chloride] | – | – | – | – | – | – | – | – | 32% | 52% | significant activity | greatest cytotoxicity | – | –
3 | CC(C)CCC[C@@H](C)[C@H]1CC[C@H]2[C@@H]3CC[C@H]4C[C@H](N)CC[C@]4(C)[C@H]3CC[C@]12C [Compound 3AC, 3α-aminocholestane] | – | – | – | – | – | – | – | – | – | – | – | – | reduces Akt activation and promotes apoptosis | effective in protecting the majority of mice
